Reference: patent US10800741B2 (ANCUREALL PHARMACEUTICAL (SHANGHAI) CO., LTD., priority 2017, dated 2020)
Read-outs that look alike come from different tables or passages of the source.

Key:
Test in all cases: KINOMEscan in vitro binding to 468 labeled protein kinases
protein kinases [1] = biological target: T1, protein kinases (Homo sapiens, UniProt P08631); conditions: HCK, read-out: Test compound/solvent control (%)
T1 construct: purchased Discovery X company (USA), KINOMEscan screening platform
Method: (§1) Test Example 6 Determination of Binding Affinity of the Present Compounds on Protein Kinases In Vitro
(§2) KINOMEscan screening platform of Discovery X company (USA) was used to identify the binding targets of the present compounds to protein kinases. Compound 66 of the present invention was dissolved in DMSO (Sigma Aldrich) at concentrations of 1000 nM, 10 nM and 1 nM, and then was subjected to in vitro binding reaction with 468 labeled protein kinases. Two samples were taken in parallel for each assay sample.
(§3) The lower the percentage of the test compound to the solvent control, the stronger the binding affinity of the test compound to the protein kinase in vitro.

protein kinases [2] = biological target: T2, protein kinases (Homo sapiens, UniProt P00533, L861Q); conditions: EGFR(L861Q)
T2 construct: purchased Discovery X company (USA), KINOMEscan screening platform
Method: as §1, §2, §3

protein kinases [3] = biological target: T3, protein kinases (Homo sapiens, UniProt P07949, V804M); conditions: RET(V804M), read-out: Test compound/solvent control (%)
T3 construct: purchased Discovery X company (USA), KINOMEscan screening platform
Method: as §1, §2, §3

protein kinases [4] = biological target: T4, protein kinases (Homo sapiens, UniProt P00533, L858R/T790M); conditions: EGFR(L858R,T790M)
T4 construct: purchased Discovery X company (USA), KINOMEscan screening platform
Method: as §1, §2, §3

protein kinases [5] = biological target: T5, protein kinases (Homo sapiens, UniProt P00533, G719C); conditions: EGFR(G719C)
T5 construct: purchased Discovery X company (USA), KINOMEscan screening platform
Method: as §1, §2, §3

protein kinases [6] = biological target: T6, protein kinases (Homo sapiens, UniProt P00519, Y253F); conditions: ABL1(Y253F)-phosphorylated, read-out: Test compound/solvent control (%)
T6 construct: purchased Discovery X company (USA), KINOMEscan screening platform
Method: as §1, §2, §3

protein kinases [7] = biological target: T7, protein kinases (Homo sapiens, UniProt P00519, H396P); conditions: read-out: Test compound/solvent control (%); for remaining binding at 0.001 µM: 1 nM; for remaining binding at 0.01 µM: 10 nM; for remaining binding at 1 µM: 1000 nM
T7 construct: purchased Discovery X company (USA), KINOMEscan screening platform
Method: as §1, §2, §3

protein kinases [8] = biological target: T8, protein kinases (Homo sapiens, UniProt P36888); conditions: FLT3, read-out: Test compound/solvent control (%)
T8 construct: purchased Discovery X company (USA), KINOMEscan screening platform
T8 sequence (P36888 27-993): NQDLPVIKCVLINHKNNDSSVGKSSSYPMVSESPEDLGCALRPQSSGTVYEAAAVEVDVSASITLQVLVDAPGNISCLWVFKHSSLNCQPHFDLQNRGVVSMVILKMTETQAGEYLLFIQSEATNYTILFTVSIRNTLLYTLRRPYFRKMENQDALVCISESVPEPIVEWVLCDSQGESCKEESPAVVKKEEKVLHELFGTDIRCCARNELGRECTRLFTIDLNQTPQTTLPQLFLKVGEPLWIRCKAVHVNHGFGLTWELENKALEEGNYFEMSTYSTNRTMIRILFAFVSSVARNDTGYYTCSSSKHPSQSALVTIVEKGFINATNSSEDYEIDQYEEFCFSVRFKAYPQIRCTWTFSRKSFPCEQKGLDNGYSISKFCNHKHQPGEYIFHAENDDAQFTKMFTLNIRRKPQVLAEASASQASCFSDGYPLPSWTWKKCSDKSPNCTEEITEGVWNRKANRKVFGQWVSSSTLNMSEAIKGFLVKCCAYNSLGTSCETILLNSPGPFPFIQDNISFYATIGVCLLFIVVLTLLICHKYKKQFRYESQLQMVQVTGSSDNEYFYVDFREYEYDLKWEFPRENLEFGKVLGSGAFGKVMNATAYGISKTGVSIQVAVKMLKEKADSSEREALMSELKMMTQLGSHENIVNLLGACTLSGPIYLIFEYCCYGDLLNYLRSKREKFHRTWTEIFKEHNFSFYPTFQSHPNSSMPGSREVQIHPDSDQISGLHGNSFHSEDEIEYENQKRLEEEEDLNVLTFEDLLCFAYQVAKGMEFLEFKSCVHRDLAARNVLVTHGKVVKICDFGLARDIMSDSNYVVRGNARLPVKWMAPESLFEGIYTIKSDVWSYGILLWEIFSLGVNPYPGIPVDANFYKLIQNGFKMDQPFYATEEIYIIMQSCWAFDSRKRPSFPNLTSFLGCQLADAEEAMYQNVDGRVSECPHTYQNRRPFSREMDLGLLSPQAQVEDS
Method: as §1, §2, §3

protein kinases [9] = biological target: T9, protein kinases (Homo sapiens, UniProt P00533, DEL752-759); conditions: EGFR(S752-1759del)
T9 construct: purchased Discovery X company (USA), KINOMEscan screening platform
Method: as §1, §2, §3

protein kinases [10] = biological target: T10, protein kinases (Homo sapiens, UniProt P00533, T790M); conditions: EGFR(T790M)
T10 construct: purchased Discovery X company (USA), KINOMEscan screening platform
Method: as §1, §2, §3

protein kinases [11] = biological target: T11, protein kinases (Homo sapiens, UniProt P10721, A829P); conditions: KIT(A829P), read-out: Test compound/solvent control (%)
T11 construct: purchased Discovery X company (USA), KINOMEscan screening platform
Method: as §1, §2, §3

protein kinases [12] = biological target: T12, protein kinases (Homo sapiens, UniProt P00519, T315I); conditions: read-out: Test compound/solvent control (%); for remaining binding at 0.001 µM: 1 nM; for remaining binding at 0.01 µM: 10 nM; for remaining binding at 1 µM: 1000 nM
T12 construct: purchased Discovery X company (USA), KINOMEscan screening platform
Method: as §1, §2, §3

T11 sequence (P10721 26-976 A829P): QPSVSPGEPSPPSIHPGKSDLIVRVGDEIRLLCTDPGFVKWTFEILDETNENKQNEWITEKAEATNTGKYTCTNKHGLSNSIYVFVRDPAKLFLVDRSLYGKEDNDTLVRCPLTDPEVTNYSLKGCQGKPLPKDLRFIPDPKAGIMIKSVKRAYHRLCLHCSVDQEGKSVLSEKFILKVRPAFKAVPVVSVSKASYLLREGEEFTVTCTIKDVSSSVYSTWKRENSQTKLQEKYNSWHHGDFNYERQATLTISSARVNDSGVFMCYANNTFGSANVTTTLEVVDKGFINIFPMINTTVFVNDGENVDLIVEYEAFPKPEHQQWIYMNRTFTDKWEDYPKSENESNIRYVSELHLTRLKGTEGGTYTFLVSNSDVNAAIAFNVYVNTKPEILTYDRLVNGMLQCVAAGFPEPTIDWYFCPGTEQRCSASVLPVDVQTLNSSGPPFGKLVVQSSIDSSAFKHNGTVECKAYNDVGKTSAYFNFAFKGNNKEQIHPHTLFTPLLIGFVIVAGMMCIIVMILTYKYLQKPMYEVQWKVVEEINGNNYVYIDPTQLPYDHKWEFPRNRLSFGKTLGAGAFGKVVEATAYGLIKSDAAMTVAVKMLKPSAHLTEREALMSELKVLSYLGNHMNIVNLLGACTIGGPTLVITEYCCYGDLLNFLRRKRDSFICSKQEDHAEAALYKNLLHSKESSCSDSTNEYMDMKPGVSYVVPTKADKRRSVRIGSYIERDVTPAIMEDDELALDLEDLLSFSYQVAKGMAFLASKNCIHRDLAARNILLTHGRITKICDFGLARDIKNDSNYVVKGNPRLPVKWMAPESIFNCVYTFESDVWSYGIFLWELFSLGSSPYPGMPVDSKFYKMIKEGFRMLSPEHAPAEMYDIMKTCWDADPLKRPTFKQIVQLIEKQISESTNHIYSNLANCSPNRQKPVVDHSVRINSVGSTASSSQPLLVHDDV
T3 sequence (P07949 29-1114 V804M): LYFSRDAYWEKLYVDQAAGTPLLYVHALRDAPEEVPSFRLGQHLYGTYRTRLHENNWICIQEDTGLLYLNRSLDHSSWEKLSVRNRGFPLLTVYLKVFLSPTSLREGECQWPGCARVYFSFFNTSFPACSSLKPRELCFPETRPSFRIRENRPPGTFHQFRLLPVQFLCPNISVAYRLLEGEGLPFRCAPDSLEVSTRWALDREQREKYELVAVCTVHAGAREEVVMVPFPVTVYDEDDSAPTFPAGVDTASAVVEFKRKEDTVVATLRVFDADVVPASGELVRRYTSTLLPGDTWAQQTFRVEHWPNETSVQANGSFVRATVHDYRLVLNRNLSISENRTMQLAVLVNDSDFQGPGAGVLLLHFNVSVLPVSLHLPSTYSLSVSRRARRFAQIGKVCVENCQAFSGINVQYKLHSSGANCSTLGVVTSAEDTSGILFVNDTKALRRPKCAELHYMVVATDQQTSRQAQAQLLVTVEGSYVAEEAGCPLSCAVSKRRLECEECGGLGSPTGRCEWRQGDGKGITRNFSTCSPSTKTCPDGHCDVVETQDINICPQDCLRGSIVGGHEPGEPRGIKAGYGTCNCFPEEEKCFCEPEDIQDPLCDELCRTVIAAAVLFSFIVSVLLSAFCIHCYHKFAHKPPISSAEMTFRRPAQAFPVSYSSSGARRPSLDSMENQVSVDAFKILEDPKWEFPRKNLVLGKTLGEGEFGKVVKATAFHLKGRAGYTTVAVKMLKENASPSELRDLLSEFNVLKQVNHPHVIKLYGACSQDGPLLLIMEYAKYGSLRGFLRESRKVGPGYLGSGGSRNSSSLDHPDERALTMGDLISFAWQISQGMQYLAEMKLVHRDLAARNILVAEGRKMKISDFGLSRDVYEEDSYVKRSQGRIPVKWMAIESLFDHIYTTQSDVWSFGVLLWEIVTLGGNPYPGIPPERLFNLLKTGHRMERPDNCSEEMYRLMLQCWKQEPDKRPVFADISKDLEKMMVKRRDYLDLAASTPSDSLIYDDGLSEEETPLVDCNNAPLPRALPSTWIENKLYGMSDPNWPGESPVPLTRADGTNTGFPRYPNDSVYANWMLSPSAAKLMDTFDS
T5 sequence (P00533 25-1210 G719C): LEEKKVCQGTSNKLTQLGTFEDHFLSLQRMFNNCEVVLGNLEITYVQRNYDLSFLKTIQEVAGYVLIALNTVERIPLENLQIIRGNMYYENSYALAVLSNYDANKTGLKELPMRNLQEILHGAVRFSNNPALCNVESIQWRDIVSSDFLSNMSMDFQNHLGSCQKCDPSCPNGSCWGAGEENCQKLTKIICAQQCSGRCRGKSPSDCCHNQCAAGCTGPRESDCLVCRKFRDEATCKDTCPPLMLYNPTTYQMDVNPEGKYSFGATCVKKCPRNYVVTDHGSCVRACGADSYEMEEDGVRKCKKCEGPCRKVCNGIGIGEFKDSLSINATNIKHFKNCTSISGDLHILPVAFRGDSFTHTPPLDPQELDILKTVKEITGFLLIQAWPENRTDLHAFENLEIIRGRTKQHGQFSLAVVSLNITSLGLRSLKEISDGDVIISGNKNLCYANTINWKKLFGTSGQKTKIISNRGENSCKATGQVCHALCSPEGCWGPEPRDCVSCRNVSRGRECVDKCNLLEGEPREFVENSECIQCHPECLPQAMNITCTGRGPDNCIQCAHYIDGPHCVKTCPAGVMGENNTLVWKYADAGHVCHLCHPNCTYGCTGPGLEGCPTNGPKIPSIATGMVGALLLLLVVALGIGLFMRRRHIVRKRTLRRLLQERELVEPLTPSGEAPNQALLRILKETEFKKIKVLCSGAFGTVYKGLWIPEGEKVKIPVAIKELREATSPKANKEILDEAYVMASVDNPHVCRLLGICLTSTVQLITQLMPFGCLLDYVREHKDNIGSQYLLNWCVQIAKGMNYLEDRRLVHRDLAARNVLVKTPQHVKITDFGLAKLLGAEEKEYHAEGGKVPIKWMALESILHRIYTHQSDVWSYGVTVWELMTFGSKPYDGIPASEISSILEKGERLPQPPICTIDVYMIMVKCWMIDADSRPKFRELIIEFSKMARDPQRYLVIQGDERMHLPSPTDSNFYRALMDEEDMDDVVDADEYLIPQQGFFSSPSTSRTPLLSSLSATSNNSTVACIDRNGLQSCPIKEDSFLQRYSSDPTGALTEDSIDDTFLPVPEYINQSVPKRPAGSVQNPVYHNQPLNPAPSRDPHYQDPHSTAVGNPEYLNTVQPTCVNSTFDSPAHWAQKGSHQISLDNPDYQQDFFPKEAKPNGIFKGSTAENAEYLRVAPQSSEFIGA
T2 sequence (P00533 25-1210 L861Q): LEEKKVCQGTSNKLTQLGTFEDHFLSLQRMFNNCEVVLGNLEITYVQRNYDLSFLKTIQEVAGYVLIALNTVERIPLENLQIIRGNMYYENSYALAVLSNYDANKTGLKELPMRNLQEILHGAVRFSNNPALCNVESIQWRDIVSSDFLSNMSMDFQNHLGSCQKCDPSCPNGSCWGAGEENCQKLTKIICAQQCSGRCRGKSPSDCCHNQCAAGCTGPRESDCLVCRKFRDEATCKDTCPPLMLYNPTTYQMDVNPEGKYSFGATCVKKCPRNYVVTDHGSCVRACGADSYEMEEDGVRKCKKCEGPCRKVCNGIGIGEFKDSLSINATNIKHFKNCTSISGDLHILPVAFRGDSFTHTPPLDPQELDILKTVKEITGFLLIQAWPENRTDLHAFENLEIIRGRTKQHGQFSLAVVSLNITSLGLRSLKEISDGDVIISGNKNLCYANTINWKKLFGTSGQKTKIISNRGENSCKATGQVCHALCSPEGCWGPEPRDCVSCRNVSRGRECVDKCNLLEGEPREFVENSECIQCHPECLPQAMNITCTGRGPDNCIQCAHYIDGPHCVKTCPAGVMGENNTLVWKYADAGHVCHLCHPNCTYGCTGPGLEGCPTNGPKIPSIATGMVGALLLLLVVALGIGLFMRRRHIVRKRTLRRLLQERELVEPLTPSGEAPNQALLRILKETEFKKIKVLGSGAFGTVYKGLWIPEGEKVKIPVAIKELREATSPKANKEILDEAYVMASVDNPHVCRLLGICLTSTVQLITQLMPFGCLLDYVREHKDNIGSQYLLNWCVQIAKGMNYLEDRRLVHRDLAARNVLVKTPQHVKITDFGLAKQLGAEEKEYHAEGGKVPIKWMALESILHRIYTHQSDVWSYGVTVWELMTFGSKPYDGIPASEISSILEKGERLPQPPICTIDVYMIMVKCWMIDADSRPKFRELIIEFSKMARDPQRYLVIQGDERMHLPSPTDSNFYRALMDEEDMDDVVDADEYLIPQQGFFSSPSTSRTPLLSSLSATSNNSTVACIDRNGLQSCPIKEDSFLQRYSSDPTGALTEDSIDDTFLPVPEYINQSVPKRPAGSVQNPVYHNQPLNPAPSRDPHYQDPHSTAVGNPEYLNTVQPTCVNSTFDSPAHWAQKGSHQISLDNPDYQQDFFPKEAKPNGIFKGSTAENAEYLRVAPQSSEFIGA
T1 sequence (P08631 whole entry): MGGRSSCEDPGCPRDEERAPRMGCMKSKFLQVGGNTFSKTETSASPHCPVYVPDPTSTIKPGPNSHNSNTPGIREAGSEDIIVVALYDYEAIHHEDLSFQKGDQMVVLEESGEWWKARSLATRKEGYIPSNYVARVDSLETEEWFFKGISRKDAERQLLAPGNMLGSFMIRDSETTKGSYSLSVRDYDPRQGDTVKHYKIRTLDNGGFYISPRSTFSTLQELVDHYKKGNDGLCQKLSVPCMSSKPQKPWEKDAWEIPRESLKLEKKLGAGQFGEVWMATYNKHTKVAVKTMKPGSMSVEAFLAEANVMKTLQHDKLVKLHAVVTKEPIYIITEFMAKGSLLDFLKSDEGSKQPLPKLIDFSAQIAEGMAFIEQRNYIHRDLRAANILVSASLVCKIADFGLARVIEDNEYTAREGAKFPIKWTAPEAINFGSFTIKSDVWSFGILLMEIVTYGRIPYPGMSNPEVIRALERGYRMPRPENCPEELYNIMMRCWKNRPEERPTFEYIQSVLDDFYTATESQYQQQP

- remaining binding at 0.001 µM (protein kinases [1]; 1 nM): 60%
- remaining binding at 0.01 µM (protein kinases [1]; 10 nM): 1.7%
- remaining binding at 1 µM (protein kinases [1]; 1000 nM): 0%
- Test compound/solvent control (%) (protein kinases [2]; 1 nM): 73%
- Test compound/solvent control (%) (protein kinases [2]; 10 nM): 9.5%
- Test compound/solvent control (%) (protein kinases [2]; 1000 nM): 0%
- remaining binding at 0.001 µM (protein kinases [3]; 1 nM): 100%
- remaining binding at 0.01 µM (protein kinases [3]; 10 nM): 34%
- remaining binding at 1 µM (protein kinases [3]; 1000 nM): 0%
- Test compound/solvent control (%) (protein kinases [4]; 1 nM): 64%
- Test compound/solvent control (%) (protein kinases [4]; 10 nM): 21%
- Test compound/solvent control (%) (protein kinases [4]; 1000 nM): 0.7%
- Test compound/solvent control (%) (protein kinases [5]; 1 nM): 83%
- Test compound/solvent control (%) (protein kinases [5]; 10 nM): 30%
- Test compound/solvent control (%) (protein kinases [5]; 1000 nM): 0.2%
- remaining binding at 0.001 µM (protein kinases [6]; 1 nM): 80%
- remaining binding at 0.01 µM (protein kinases [6]; 10 nM): 11%
- remaining binding at 1 µM (protein kinases [6]; 1000 nM): 0.1%
- remaining binding at 0.001 µM (protein kinases [7]; ABL1(H396P)-phosphorylated): 55%
- remaining binding at 0.01 µM (protein kinases [7]; ABL1(H396P)-phosphorylated): 9.7%
- remaining binding at 1 µM (protein kinases [7]; ABL1(H396P)-phosphorylated): 0%
- remaining binding at 0.001 µM (protein kinases [7]; ABL1(H396P)-unphosphorylated): 27%
- remaining binding at 0.01 µM (protein kinases [7]; ABL1(H396P)-unphosphorylated): 1.8%
- remaining binding at 1 µM (protein kinases [7]; ABL1(H396P)-unphosphorylated): 0.05%
- remaining binding at 0.001 µM (protein kinases [8]; 1 nM): 92%
- remaining binding at 0.01 µM (protein kinases [8]; 10 nM): 20%
- remaining binding at 1 µM (protein kinases [8]; 1000 nM): 1.9%
- Test compound/solvent control (%) (protein kinases [9]; 1 nM): 90%
- Test compound/solvent control (%) (protein kinases [9]; 10 nM): 29%
- Test compound/solvent control (%) (protein kinases [9]; 1000 nM): 0%
- Test compound/solvent control (%) (protein kinases [10]; 1 nM): 83%
- Test compound/solvent control (%) (protein kinases [10]; 10 nM): 19%
- Test compound/solvent control (%) (protein kinases [10]; 1000 nM): 0.2%
- remaining binding at 0.001 µM (protein kinases [11]; 1 nM): 84%
- remaining binding at 0.01 µM (protein kinases [11]; 10 nM): 22%
- remaining binding at 1 µM (protein kinases [11]; 1000 nM): 0%
- remaining binding at 0.001 µM (protein kinases [12]; ABL1(T315I)-phosphorylated): 100%
- remaining binding at 0.01 µM (protein kinases [12]; ABL1(T315I)-phosphorylated): 34%
- remaining binding at 1 µM (protein kinases [12]; ABL1(T315I)-phosphorylated): 0.45%
- remaining binding at 0.001 µM (protein kinases [12]; ABL1(T315I)-unphosphorylated): 96%
- remaining binding at 0.01 µM (protein kinases [12]; ABL1(T315I)-unphosphorylated): 32%
- remaining binding at 1 µM (protein kinases [12]; ABL1(T315I)-unphosphorylated): 0.15%
SMILES: COCCOc1cc2nccc(Oc3ccc(NC(=O)Nc4cc(C(C)(C)C)n[nH]4)c(Cl)c3)c2cc1NC(C)=O [Compound 66, N-[4-{4-[3-(5-tert-butyl-2H-pyrazol-3-yl)-ureido]-3-chloro-phenoxy}-7-(2-methoxy-ethoxy)-quinolin-6-yl]-acetamide]
